The values below come from paper PMC9656702, “Unveiling a New Selenocyanate as a Multitarget Candidate with Anticancer, Antileishmanial and Antibacterial Potential” (Molecules, 2022).

The subject of one experiment is S. faecalis. Put plainly: MIC and MBC assay, S. faecalis. Format: cell-based, Streptococcus faecalis. The settings on record: for MIC / MBC: Enterococcus faecalis; for MIC: read-out: MIC S. faecalis; for MBC: read-out: MBC S. faecalis. The procedure:
(§1) The minimum inhibitory concentration (MIC) and the minimum bactericidal concentration (MBC) values of the selenocompounds were determined in a panel of six bacterial strains as a first approach to assess their antibacterial activity. Thus, the synthesized derivatives were tested against the Gram-negative bacteria Escherichia coli (E. coli), Klebsiella pneumoniae (K. pneumoniae) and Citrobacter freundii (C. freundii); and the Gram-positive bacteria Staphylococcus aureus (S. aureus), Streptococcus faecalis (S. faecalis), and Staphylococcus epidermidis (S. epidermidis). […]
(§2) All the selenocompounds were screened for their in vitro inhibitory activity against three Gram-negative (E. coli, K. pneumoniae and C. freundii) and three Gram-positive (S. aureus, S. faecalis and S. epidermidis) bacteria. Bacterial strains were kindly provided by the Department of Microbiology and Parasitology of the University of Navarra. The bacterial cells were grown in tryptic soy agar (TSA) plates and maintained at 4 °C.
(§3) The compounds were firstly dissolved in DMSO and serially diluted in a 96-well plate in tryptic soy broth (TSB) with eleven concentrations ranging from 400 µg/mL to 0.4 µg/mL with a final volume of 100 µL. Subsequently, 100 µL of a diluted suspension of bacterial cells with an optical density of 0.125 measured at 600 nm in TSB (inoculum of approximately 10^5 CFU/mL) was added to each well and incubated at 37 °C for 24 h. After the incubation period, each well was analyzed for the presence or absence of visual growth of bacterial cells. The lowest concentration of the test compound at which no visible growth occurred was determined as the MIC values. After incubation, 10 µL of the bacterial suspension from each well that presented antibacterial activity was added to divided TSA plates and incubated at 37 °C overnight.

A further experiment deals with 184B5. Put plainly: MTT assay in nonmalignant mammary gland cells 184B5. Format: cell-based. The settings on record: for IC50: read-out: IC50 184B5. How it is done: To assess their possible selectivity, the synthesized selenocompounds were then tested in a mammary gland (184B5) nonmalignant cell line, and the selectivity indexes (SI) were determined as the ratio of the IC50 values obtained for the nonmalignant cells and the homolog cancer cells.
(§4) The cell lines were obtained from the American Type Culture Collection (ATCC). All the cancer cell lines (HT-29, HCT-116, H1299, HTB-54, MDA-MB-231 and MCF-7) and the nontumorigenic cells (184B5) were maintained in RPMI 1640 medium (Gibco), supplemented with 10% fetal bovine serum (FBS; Gibco) and 1% antibiotics (10.00 units/mL penicillin and 10.00 mg/mL streptomycin; Gibco). Cells were preserved in tissue culture flasks at 37 °C and 5% CO2. Culture medium was replaced every three days.
(§5) The cytotoxic effect of each compound was initially tested at seven different concentrations ranging between 0.5 and 100 µM in the cell lines mentioned above. The cells were seeded (1 × 10^4 cells per well) in 96-well plates and incubated at 37 °C and 5% CO2 for 24 h. After attachment, cells were treated with either dimethyl sulfoxide (DMSO) or increasing concentrations of the corresponding selenocompound for 48 h. The effect of the compounds on cell viability was determined by the MTT assay. In brief, 20 µL of MTT (5 mg/mL) was added to each well 2.5 h prior to experiment termination. At the end of the incubation, the medium was removed, and the formazan crystals were dissolved in 50 µL of DMSO. Absorbance was measured at 550 nm on a microplate reader. IC50 values were calculated using OriginPro 8.5.1. software by nonlinear curve fitting. Selectivity indexes were calculated as the ratio of the IC50 values determined for the nonmalignant and the tumoral cells in the breast cell lines (IC50 (184B5)/IC50 (MDA-MB-231) and IC50 (184B5)/IC50 (MCF-7)). Data were obtained from at least three independent experiments performed in triplicates.
A general note: Formazan colour is commonly taken as a measure of viable cells.

The subject of a further experiment is HCT-116. Description: Antiproliferative MTT assay, HCT-116 colon cancer cells. The format is cell-based, human. The procedure:
(§6) The antiproliferative activities of the cinnamyl and benzodioxyl derivatives were assessed against six human cell lines of three different types of cancer (colon, lung, and breast) using the 3-(4,5-dimethylthiazol-2-yl)-2,5-diphenyltetrazolium bromide (MTT) assay at seven concentrations for 48 h. The results are expressed as the IC50 values and are outlined in Table 1.
as §4, §5

Another experiment has as its system K. pneumoniae. Description: MIC and MBC assay, K. pneumoniae. Format: cell-based, Klebsiella pneumoniae. The settings on record: for MIC / MBC: Klebsiella pneumoniae; for MIC: read-out: MIC K. pneumoniae; for MBC: read-out: MBC K. pneumoniae. How it is done: as §1, §2, §3
In experiment [1] the test system is Leishmania major promastigotes. Description: Parasite viability MTT assay, L. major promastigotes. The format is cell-based. The settings on record: 48 h. How it is done: The cytotoxic activities of all the derivatives against Leishmania major and Leishmania infantum promastigotes were studied by the MTT assay after exposing the parasites to five different concentrations of each compound for 48 h. Miltefosine and paromomycin, two currently available drugs for the treatment of leishmaniasis, were used as positive controls.
L. major (clone VI, MHOM/IL/80/Friendlin) and L. infantum (BCN-150) promastigotes were grown in continuous stirred M199 1X medium (Sigma, St Louis, MO, USA) at 26 °C supplemented with 25 mM HEPES (pH 7.2), 10% heat-inactivated FBS (Gibco, Gaithersburg, MD, USA), 0.1 mM adenine, 0.0005% (w/v) hemin, 0.0001% (w/v) biotin, 100 UI/mL penicillin and […] streptomycin (Gibco, Gaithersburg, MD, USA). Media were changed before each experiment to achieve exponential growth.
The antileishmanial activity was assessed by the MTT assay as previously described. Briefly, 3 × 10^6 promastigotes of both Leishmania strains were placed into a 96-well plate with supplemented M199 1X medium during their logarithmic growth phase. The parasites were treated with five increasing concentrations of the compounds ranging between 0.1 and 1000 µM at 26 °C for 48 h. At the termination point, 20 µL of MTT (5 mg/mL) was added and further incubated for 4 h. The resultant formazan crystals formed were dissolved in 80 µL of DMSO and the absorbance was measured at 550 nm on a microplate reader. IC50 values were calculated using OriginPro 8.5.1. software by nonlinear curve fitting. Miltefosine and paromomycin were used as reference drugs. Data were obtained from at least three independent experiments performed in triplicates.

For a further experiment, the system named is HTB-54. Put plainly: Antiproliferative MTT assay, HTB-54 lung cancer cells. Format: cell-based, human. How it is done: as §6, §4, §5
Another experiment relates to S. aureus. Description: MIC and MBC assay, S. aureus. The format is cell-based, Staphylococcus aureus. The settings on record: Gram-positive; for MBC / MIC: Staphylococcus aureus; for MIC / MIC S. aureus: 24 h at 37 °C. The procedure:
as §1, §2, §3

Where [2] appears, read: Homo sapiens, 184B5, 48 h, nontumorigenic cells, MTT assay, 48 h, mean ± SD.
[3] abbreviates: nontumorigenic cells, MTT assay, 48 h, mean ± SD.
The mark [4] stands for this setting: Homo sapiens, HCT-116, 48 h, MTT assay, 48 h, mean ± SD, read-out: IC50 HCT-116.
Setting [5] is: MTT assay, 48 h, mean ± SD, read-out: IC50 HCT-116.
[6] abbreviates: Leishmania major, promastigotes, MTT assay, mean ± SD, read-out: IC50 Leishmania major.
[7] abbreviates: Homo sapiens, HTB-54, MTT assay, 48 h, mean ± SD, read-out: IC50 HTB-54.
The mark [8] stands for this setting: promastigotes, MTT assay, mean ± SD, read-out: IC50 Leishmania major.
[9] abbreviates: MTT assay, 48 h, mean ± SD, read-out: IC50 HTB-54.

Converted amounts (≈) assume the structure as drawn. Read-outs that look alike come from different tables or passages of the source.

Consider `N#C[Se]C/C=C/c1ccccc1` [Compound 1a, (E)-(3-selenocyanatoprop-1-en-1-yl)benzene], for which the MIC (commonly the least concentration at which growth counts as inhibited) came out at 50 µg/mL (≈ 225 µM) in the experiment with S. faecalis (24 h), 100 µg/mL (≈ 450 µM) in the experiment with K. pneumoniae (24 h) and 50 µg/mL (≈ 225 µM) against S. aureus. Moreover, the MBC (in general, the lowest tested concentration that kills the bacteria rather than only halting them) in the experiment on S. faecalis is more than 200 µg/mL; in the experiment with K. pneumoniae it was 100 µg/mL (≈ 450 µM); with S. aureus it was 50 µg/mL (≈ 225 µM). In addition, the “MBC S. faecalis” value against S. faecalis (Gram-positive) is reported as “no bactericidal effect was observed”. Further, the IC50 (as a rule, the concentration needed to halve the response being measured) in the experiment with 184B5 (Homo sapiens, 184B5, 48 h) is 55 ± 6.7 µM; in the experiment on HCT-116 (Homo sapiens, HCT-116, 48 h, read-out: IC50 HCT-116, MTT assay, 48 h, mean ± SD), more than 50 µM; in the experiment with HCT-116 (read-out: IC50 HCT-116, MTT assay, 48 h, mean ± SD) it was 68.8 ± 6.3 µM; in experiment [1] (Leishmania major, read-out: IC50 Leishmania major, promastigotes, MTT assay, 48 h, mean ± SD), less than 5 µM; in experiment [1] (read-out: IC50 Leishmania major, promastigotes, MTT assay, mean ± SD), 4.6 ± 1.7 µM; in the experiment on HTB-54 (Homo sapiens, HTB-54, 48 h, read-out: IC50 HTB-54, MTT assay, 48 h, mean ± SD), more than 50 µM. Besides, in the experiment on HTB-54 (read-out: IC50 HTB-54, MTT assay, 48 h, mean ± SD), the IC50 stood at 58.7 ± 9 µM.
Regarding `C(=C\c1ccccc1)/C[Se][Se]C/C=C/c1ccccc1` [Compound 1b, 1,2-Dicinnamyldiselenide], the MIC with S. faecalis (Gram-positive, 24 h at 37 °C) is more than 200 µg/mL; in the experiment with K. pneumoniae (Gram-negative, 24 h at 37 °C) it was more than 200 µg/mL; in the experiment on S. aureus, more than 200 µg/mL. The IC50 with 184B5 (setting [2]) was more than 100 µM; in the experiment on HCT-116 (setting [4]), less than 40 µM; with HCT-116 (setting [5]), 36.6 ± 6.7 µM; in experiment [1] (setting [6]), 47.6 ± 16 µM; in the experiment on HTB-54 (setting [7]) it was 50.1 ± 5.9 µM. Moreover, in the experiment on 184B5 (setting [3]), the “IC50 184B5” value is listed as “not toxic”.
On to `O=C(CC[Se]CC=Cc1ccccc1)[c-]1cccc1.[Fe+2].c1cc[cH-]c1` [Compound 1c, 3-(Cinnamylselanyl)-1-ferrocenylpropan-1-one], for which the “MIC S. faecalis” value with S. faecalis (Gram-positive, 24 h at 37 °C) is more than 200 µg/mL. The IC50 in the experiment with 184B5 (setting [3]) is 24.6 ± 0.4 µM; with HCT-116 (setting [5]) it was more than 100 µM; in experiment [1] (setting [8]), 25.8 ± 2.7 µM; in the experiment on HTB-54 (setting [9]), 32.3 ± 3.2 µM. The “MIC K. pneumoniae” value with K. pneumoniae (Gram-negative, 24 h at 37 °C) is more than 200 µg/mL. Besides, the “MIC S. aureus” value against S. aureus was more than 200 µg/mL.
Take `N#C[Se]Cc1ccc2c(c1)OCO2` [Compound 2a, 5-(Selenocyanatomethyl)benzo[d][1,3]dioxole]: the MIC came out at 25 µg/mL (≈ 104 µM) in the experiment with S. faecalis (Gram-positive, 24 h at 37 °C); 50 µg/mL (≈ 208 µM) in the experiment on K. pneumoniae (Gram-negative, 24 h at 37 °C); 25 µg/mL (≈ 104 µM) against S. aureus. Besides, the figures for the MBC in the experiment with S. faecalis (Gram-positive), with K. pneumoniae (Gram-negative) and in the experiment with S. aureus were more than 200 µg/mL, 50 µg/mL (≈ 208 µM) and more than 200 µg/mL, respectively. Further, the “MBC S. faecalis” value against S. faecalis (Gram-positive) is “no bactericidal effect was observed”. Moreover, the “MIC S. faecalis” value in the experiment on S. faecalis (Gram-positive, 24 h at 37 °C) is not above 25 µg/mL. For the same molecule, the IC50 is approximately 50 µM in the experiment with 184B5 (setting [2]); 48.6 ± 2.1 µM in the experiment on 184B5 (setting [3]); 69.7 ± 5.3 µM in the experiment with HCT-116 (setting [4]); less than 5 µM in experiment [1] (setting [6]); 3.3 ± 0.9 µM in experiment [1] (setting [8]); 45.2 ± 8.2 µM in the experiment on HTB-54 (setting [7]). Besides, the “MBC S. aureus” value against S. aureus is reported as “could not be obtained”. Also, in the experiment on S. aureus, the “MIC S. aureus” value is not above 25 µg/mL.
With `O=C(CC[Se]Cc1ccc2c(c1)OCO2)[c-]1cccc1.[Fe+2].c1cc[cH-]c1` [Compound 2c, 3-((Benzo[d][1,3]dioxol-5-ylmethyl)selanyl)-1-ferrocenylpropan-1-one], the “MIC S. faecalis” value in the experiment with S. faecalis (Gram-positive, 24 h at 37 °C) was more than 200 µg/mL. For the same molecule, the IC50 was 50.1 ± 4.5 µM with 184B5 (setting [3]), more than 100 µM in the experiment with HCT-116 (setting [5]), 11.2 ± 3 µM in experiment [1] (setting [8]) and 29.7 ± 2.9 µM in the experiment with HTB-54 (setting [9]). Moreover, the “MIC K. pneumoniae” value in the experiment on K. pneumoniae (Gram-negative, 24 h at 37 °C) is more than 200 µg/mL. Besides, the “MIC S. aureus” value in the experiment on S. aureus is more than 200 µg/mL.
